The results in this text go back to ChEMBL document CHEMBL1201862, “PubChem BioAssay data set” (2004).

Test systems include A549; HCT-116; SR; NCI/ADR-RES; RPMI-8226; Malme-3M; A498; MDA-MB-435; SK-MEL-5; CAKI-1; HOP-62; K562; CCRF-CEM; ACHN; MOLT-4; OVCAR-3; NCI-H23; SF-295; OVCAR-4; HCC 2998.
Test in all cases: DTP human tumour cell line panel, 48 h

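Assay format: 96-well plates, 48-hour exposure. At the GI50, growth is halved.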 Activity calls are given as the source filed them. Cut-off read from the data, not from the text of the source: active = GI50 up to about 1.1 µM and inactive = higher.

Turning to `CN(C)c1ccc(/C=C/c2ccnc3ccc4ccccc4c23)cc1`, the GI50 in the assay on A549 was 35.7 µM (inactive); in the assay with HCT-116, 36.5 µM (inactive); with SR, 13.2 µM (inactive); in the assay on NCI/ADR-RES it was 43.3 µM (inactive); with RPMI-8226, 79.4 µM (inactive); in the assay on Malme-3M it was 25.3 µM (inactive). Also, the GI50 was 24.8 µM (inactive) in the assay with A498; 24.2 µM (inactive) in the assay with MDA-MB-435; 71 µM (inactive) in the assay on SK-MEL-5; 38.4 µM (inactive) in the assay on CAKI-1; 33.4 µM (inactive) in the assay with HOP-62; 53 µM (inactive) in the assay on K562. In addition, the GI50 is > 100 µM (inactive) in the assay with CCRF-CEM; 22.8 µM (inactive) in the assay on ACHN; > 100 µM (inactive) with MOLT-4; 51.9 µM (inactive) in the assay with OVCAR-3; 52.4 µM (inactive) in the assay with NCI-H23.
Consider `COc1ccc(CCn2ccc(C)n2)c(OC)c1`, for which the GI50 was > 100 µM (inactive) with A549; > 100 µM (inactive) with HCT-116; > 100 µM (inactive) with SF-295; 90.2 µM (inactive) in the assay with NCI/ADR-RES; > 100 µM (inactive) in the assay on Malme-3M; > 100 µM (inactive) with MDA-MB-435. Besides, the GI50 in the assay with SK-MEL-5, in the assay with CAKI-1, in the assay on HOP-62, in the assay on K562, with CCRF-CEM and with ACHN was > 100 µM (inactive) each time. Further, the GI50 in the assay with MOLT-4, with OVCAR-3, in the assay with OVCAR-4 and in the assay on NCI-H23 was > 100 µM (inactive) throughout.
Turning to `O=C(NS(=O)(=O)OCC(Cl)(Cl)Cl)SCCC(F)(F)C(F)(F)C(F)(F)C(F)(F)C(F)(F)C(F)(F)F`, the GI50 with A549 was 30.2 µM (inactive); in the assay on HCT-116 it was 19.8 µM (inactive); in the assay with SR, 32.7 µM (inactive); in the assay with SF-295 it was 20.2 µM (inactive); with NCI/ADR-RES, 20.2 µM (inactive); with RPMI-8226, 18.5 µM (inactive). In addition, the GI50 is 17.9 µM (inactive) in the assay with Malme-3M; 31 µM (inactive) in the assay on A498; 23.8 µM (inactive) in the assay with MDA-MB-435; 30.5 µM (inactive) with CAKI-1; 28.2 µM (inactive) with HOP-62; 28.6 µM (inactive) in the assay with K562. Further, the GI50 in the assay on CCRF-CEM was 22.8 µM (inactive); in the assay on ACHN, 40.9 µM (inactive); in the assay on MOLT-4, 29 µM (inactive); in the assay with OVCAR-3, 24.9 µM (inactive); with OVCAR-4, 16.4 µM (inactive); in the assay with NCI-H23, 20.1 µM (inactive).
As for `CSCCC(NC(=O)OCc1ccccc1)NC(=O)OCc1ccccc1`, the GI50 in the assay with A549, with HCT-116, in the assay on SR, in the assay on SF-295, with NCI/ADR-RES and with RPMI-8226 was > 100 µM (inactive) each time. Further, the GI50 with HCC 2998, in the assay with MDA-MB-435, in the assay with SK-MEL-5, with CAKI-1, in the assay on HOP-62 and in the assay on K562 was > 100 µM (inactive) throughout. Moreover, the GI50 in the assay on CCRF-CEM is > 10 µM (inactive); in the assay with ACHN, > 100 µM (inactive); in the assay on MOLT-4, > 100 µM (inactive); in the assay on OVCAR-3, > 100 µM (inactive); in the assay with OVCAR-4, > 100 µM (inactive); in the assay on NCI-H23, > 100 µM (inactive).
On to `C=C1N(C)c2ccc(S(=O)(=O)c3ccc4c(c3)C(C)(C)C(=C)N4C)cc2C1(C)C`, for which the GI50 with A549 was 28.6 µM (inactive); in the assay on HCT-116 it was 34.5 µM (inactive); in the assay with SF-295 it was 22.8 µM (inactive); in the assay with NCI/ADR-RES, 59 µM (inactive); in the assay with RPMI-8226 it was 9.08 µM (inactive); with Malme-3M, 19.5 µM (inactive). In addition, the GI50 is 37.2 µM (inactive) in the assay on A498; 34.5 µM (inactive) with HCC 2998; 30.8 µM (inactive) in the assay with MDA-MB-435; 17.5 µM (inactive) in the assay with SK-MEL-5; 62.4 µM (inactive) in the assay on CAKI-1; 56.1 µM (inactive) in the assay with HOP-62. For the same molecule, the GI50 is 50.1 µM (inactive) in the assay on CCRF-CEM; 77.8 µM (inactive) in the assay with ACHN; 18 µM (inactive) in the assay on MOLT-4; 25.4 µM (inactive) with OVCAR-3; 35.3 µM (inactive) in the assay on OVCAR-4; 27.4 µM (inactive) in the assay on NCI-H23.
On to `CC(C)=C[C@@H]1C[C@H](C)[C@H]2CC[C@H](C)[C@H]3C(=O)C(O)=C(C)C(=O)[C@]123`, for which the GI50 is 57.8 µM (inactive) in the assay on A549; 88.5 µM (inactive) with HCT-116; > 100 µM (inactive) with SF-295; > 100 µM (inactive) in the assay on NCI/ADR-RES; > 100 µM (inactive) with RPMI-8226; > 100 µM (inactive) in the assay with Malme-3M. Further, the GI50 in the assay with A498, in the assay with HCC 2998, in the assay on MDA-MB-435, in the assay with SK-MEL-5, in the assay with CAKI-1 and in the assay with HOP-62 was > 100 µM (inactive) throughout. The GI50 with K562 is > 100 µM (inactive); with CCRF-CEM, 99.1 µM (inactive); with ACHN, > 100 µM (inactive); in the assay on MOLT-4, > 100 µM (inactive); with OVCAR-3, > 100 µM (inactive); in the assay with OVCAR-4 it was 90.8 µM (inactive). The GI50 in the assay on NCI-H23 is > 100 µM (inactive).
Turning to `NC(=O)c1oc([N+](=O)[O-])c(-c2ccccc2)c1-c1ccccc1`, the GI50 in the assay on A549 is 21.1 µM (inactive); in the assay with HCT-116 it was 15.4 µM (inactive); with SR, 6.27 µM (inactive); in the assay with SF-295, 15.8 µM (inactive); in the assay on NCI/ADR-RES, 19.4 µM (inactive); in the assay on Malme-3M, 3.49 µM (inactive). Further, the GI50 with MDA-MB-435 was 14.9 µM (inactive); in the assay with SK-MEL-5 it was 0.597 µM (active); in the assay on CAKI-1, 18.4 µM (inactive); in the assay with HOP-62 it was 25.8 µM (inactive); in the assay on K562, 14.6 µM (inactive); in the assay on CCRF-CEM, 19.1 µM (inactive). The GI50 with ACHN was 26.2 µM (inactive); with MOLT-4, 17.1 µM (inactive); in the assay with OVCAR-3, 1.24 µM (inactive); with OVCAR-4, 12.2 µM (inactive); in the assay with NCI-H23, 15.4 µM (inactive).
On to `O=C1NC(=O)C(CC2CCCCCCCCCCC2=O)C(=O)N1` (centres undefined), for which the GI50 in the assay with A549 is > 100 µM (inactive); with HCT-116, > 100 µM (inactive); in the assay on SR, 0.041 µM (active); in the assay on SF-295 it was > 100 µM (inactive); in the assay on NCI/ADR-RES, > 100 µM (inactive); in the assay with HCC 2998, > 100 µM (inactive). For the same molecule, the GI50 is > 100 µM (inactive) with MDA-MB-435; > 100 µM (inactive) with SK-MEL-5; > 100 µM (inactive) in the assay with CAKI-1; > 100 µM (inactive) in the assay with HOP-62; 1.2 µM (inactive) in the assay on CCRF-CEM; > 100 µM (inactive) in the assay with ACHN. In addition, the GI50 in the assay with MOLT-4 was 39.6 µM (inactive); in the assay on OVCAR-3 it was > 100 µM (inactive); with OVCAR-4, > 100 µM (inactive); with NCI-H23 it was > 100 µM (inactive).
For the molecule `CN(C)CCCN1C(=O)N(CCCN(C)C)c2c3cc(O)ccc3nc3c([N+](=O)[O-])ccc1c23`, the GI50 is 13.6 µM (inactive) with A549; 14.1 µM (inactive) with HCT-116; 34.4 µM (inactive) with SF-295; 92.9 µM (inactive) in the assay on NCI/ADR-RES; 32.6 µM (inactive) in the assay on RPMI-8226; 17.8 µM (inactive) in the assay with Malme-3M. The GI50 in the assay on A498 was 22 µM (inactive); in the assay with HCC 2998, 11.7 µM (inactive); in the assay with MDA-MB-435 it was 18 µM (inactive); in the assay with SK-MEL-5 it was 15.5 µM (inactive); with CAKI-1, 23.3 µM (inactive); in the assay with HOP-62, 17.2 µM (inactive). In addition, the GI50 in the assay on K562 is 4.99 µM (inactive); in the assay on ACHN, 16.6 µM (inactive); in the assay with OVCAR-3 it was 26.1 µM (inactive); in the assay with OVCAR-4 it was 2.29 µM (inactive); with NCI-H23 it was 13 µM (inactive).
Consider `[N-]=[N+]=CC(=O)CCC(NC(=O)C(CCC(=O)C=[N+]=[N-])NC(=O)CCC(N)C(=O)O)C(=O)O` (centres undefined), for which the GI50 with A549, in the assay with HCT-116, in the assay on SF-295, in the assay on NCI/ADR-RES, with RPMI-8226 and in the assay with Malme-3M was > 100 µM (inactive) in each case. Besides, the GI50 in the assay with A498, in the assay on HCC 2998, in the assay on SK-MEL-5, in the assay with CAKI-1, in the assay on HOP-62 and with K562 was > 100 µM (inactive) throughout. The GI50 in the assay with CCRF-CEM, in the assay with MOLT-4, in the assay on OVCAR-3, with OVCAR-4 and in the assay with NCI-H23 was > 100 µM (inactive) each time.
As to `O=S(=O)(N/C(=N\O)Nc1ccc(Cl)cc1)c1cc2ccccc2s1`, the GI50 is 18.7 µM (inactive) in the assay on A549; 16.6 µM (inactive) in the assay with HCT-116; 20.1 µM (inactive) in the assay with SF-295; 20.2 µM (inactive) with NCI/ADR-RES; 15.6 µM (inactive) with Malme-3M; 16.6 µM (inactive) in the assay on MDA-MB-435. Also, the GI50 was 16.3 µM (inactive) in the assay on SK-MEL-5; 15.8 µM (inactive) with CAKI-1; 17.7 µM (inactive) in the assay with HOP-62; 27.9 µM (inactive) with K562; 21.9 µM (inactive) with CCRF-CEM; 16.4 µM (inactive) in the assay with ACHN. Moreover, the GI50 in the assay with MOLT-4 is 16.2 µM (inactive); in the assay with OVCAR-3, 15 µM (inactive); in the assay on OVCAR-4 it was 14.4 µM (inactive); with NCI-H23, 16 µM (inactive).
